Results from US20050101623A1 (Pharmacia Corporation, priority 2003, published 2005).
Several values for one entry are separate records, joined by “and”; a condition that tells them apart may be missing. Equal values may be shown once. Where a name gives a salt, the structure may show the parent alone. Read-outs that look alike come from different tables or passages of the source.

What was measured:
[1] = target: Recombinant MAPKAPK2 (MK-2) (Homo sapiens, UniProt P49137); experiment: Determination of MK-2 IC50 (phosphorylation of HSP-peptide, anion exchange resin capture assay); type: biochemical
Chain of Recombinant MAPKAPK2 (MK-2) (P49137 whole entry, species assumed): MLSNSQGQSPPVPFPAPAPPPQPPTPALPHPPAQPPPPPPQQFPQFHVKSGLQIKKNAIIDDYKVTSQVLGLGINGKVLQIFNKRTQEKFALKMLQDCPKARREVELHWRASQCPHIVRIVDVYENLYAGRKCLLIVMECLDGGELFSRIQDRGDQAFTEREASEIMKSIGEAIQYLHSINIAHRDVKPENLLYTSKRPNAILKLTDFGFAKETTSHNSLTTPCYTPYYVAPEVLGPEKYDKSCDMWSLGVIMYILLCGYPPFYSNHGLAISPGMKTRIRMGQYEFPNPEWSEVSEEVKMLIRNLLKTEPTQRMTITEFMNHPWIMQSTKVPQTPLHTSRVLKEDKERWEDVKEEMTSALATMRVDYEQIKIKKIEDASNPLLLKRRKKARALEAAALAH

TNFα release, U937 cells = experiment: U937 Cell TNFα Release Assay (LPS, ELISA); type: cell-based, human; conditions: additional values are replicate IC50 experiments
Experimental: U937 Cell TNFα Release Assay
Differentiation of U937 to monocytic/macrophage-like cells is induced by the addition of phorbol12-myristate 13-acetate (Sigma) at final concentration of 20 ng/ml to a culture of U937 cells at ˜0.5 million cells/ml and incubated for 24 hrs. The cells are centrifuged, washed with PBS and resuspended in fresh media without PMA and incubated for 24 hrs. Cells adherent to the culture flask are harvested by scraping, centrifugation, and resuspended in fresh media to 2 million cells/ml, and 0.2 ml is aliquoted to each of 96 wells in flat-bottom plate. Cells are then incubated for an additional 24 hrs to allow for recovery. The media is removed from the cells, and 0.1 ml of fresh media is added per well. 0.05 ml of serially diluted compound or control vehicle (Media with DMSO) is added to the cells. […] Cells are incubated at 37° C. for 4 hrs. After 4 hrs incubation, supernatants are harvest and assayed by ELISA for the presence of TNFα.
Coating solution was aspirated the following day and wells were blocked with 1 mg/ml gelatin in PBS (plus 1× thimerasol) for 2 days at 4° C. Prior to using, wells were washed 3× with wash buffer (PBS with 0.05% Tween). Cultured media samples were diluted in EIA buffer (5 mg/ml bovine γ-globulin, 1 mg/ml gelatin, 1 ml/l Tween-20, 1 mg/ml thimerasol in PBS), added to wells (0.1 ml/well) in triplicate and allowed to incubate for 1.5 hr at 37° C. in a humidified chamber. […] TNF levels were quantitated from a recombinant human TNFα (R&D Systems #210-TA-010) standard curve using a quadratic parameter fit generated by SoftMaxPRO software. ELISA sensitivity was approximately 30 pg TNF/ml. IC50 values for compounds were generated using BioAssay Solver.

adjuvant arthritis = conditions: rat; cited from earlier work
MK-2 = conditions: cited from earlier work
endotoxin-induced shock = conditions: murine model of endotoxin-induced shock; cited from earlier work
[2] = test system: collagen-induced arthritis; conditions: mouse; cited from earlier work
[3] = MK-2 Avg. IC50, additional values are replicate IC50 experiments
[4] = Homo sapiens, U-937, 4 h, read-out: TNF Release Assay Avg. IC50, LPS 100 ng/ml, 4 hrs, differentiated U937 cells
[5] = additional values are replicate IC50 experiments, read-out: MK-2 Avg. IC50
[6] = Homo sapiens, U-937, 4 h, LPS 100 ng/ml, 4 hrs, differentiated U937 cells, read-out: TNF Release Assay Avg. IC50

With `COCCOC(=O)C1c2[nH]c3ccc(OC)cc3c2C2CCN1C2` (centres unmarked) the IC50 [1, 3] was 4.72 µM and 4.96 µM and the IC50 (TNFα release, U937 cells; read-out: TNF Release Assay Avg. IC50, LPS 100 ng/ml, 4 hrs, differentiated U937 cells, listed as 15) was 3.58 µM.

`COc1ccc2[nH]c3c(c2c1)C1CCN(C1)C3C(=O)OCCO` (centres unmarked) showed an IC50 [1, 3] of 5.64 µM and an IC50 (TNFα release, U937 cells; [4]) greater than 100 µM.

With `COc1ccc2[nH]c3c(c2c1)C1CCN(C1)C3C(=O)OCCSC` (centres unmarked) the IC50 [1, 3] was 4.4 µM.

`CSc1ccc2[nH]c3c(c2c1)C1CCN(C1)C3C(=O)O` (centres unmarked) [No. 4, 7-(methylthio)-3,4,5,10-tetrahydro-1H-2,5-methanoazepino[3,4-b]indole-1-carboxylic acid] showed an IC50 (TNFα release, U937 cells; LPS 100 ng/ml, 4 hrs, differentiated U937 cells, read-out: TNF Release Assay Avg. IC50) greater than 100 µM.

Work on `COc1ccc2[nH]c3c(c2c1)C1CCN(C1)C3C(=O)OCC1CCCCC1` (centres unmarked) [No. 15, hydrochloride] yielded an IC50 [1, 5] of 38.5 µM.

For `C[S+]([O-])c1ccc(-c2nc(-c3ccncc3)c(-c3ccc(F)cc3)[nH]2)cc1` (centres unmarked) [SB203580], the “development of adjuvant arthritis” value (adjuvant arthritis) is given as “inhibit the development”, the “inhibition of activation of MK-2” value (MK-2) is given as “inhibit activation” and the mortality (endotoxin-induced shock) is given as “reduce mortality”. The “development of collagen-induced arthritis” value [2] was “inhibit the development”.

`COc1ccc2[nH]c3c(c2c1)C1CCN(C1)C3C(=O)OC(C)(C)C` (centres unmarked) [compound 41, tert-butyl 7-methoxy-3,4,5,10-tetrahydro-1H-2,5-methanoazepino[3,4-b]indole-1-carboxylate] showed an IC50 [1, 5] of 112 µM and an IC50 (TNFα release, U937 cells; [4]) greater than 100 µM.

In the case of `COc1ccc2[nH]c3c(c2c1)C1CCN(C1)C3C(=O)OC12CC3CC(CC(C3)C1)C2` (centres unmarked) [compound 42], the IC50 (TNFα release, U937 cells; [4]) is reported as 42.4 µM.

`CNC(=O)C1c2[nH]c3ccc(OC)cc3c2C2CCN1C2` (centres unmarked) [compound 44, 7-methoxy-N-methyl-3,4,5,10-tetrahydro-1H-2,5-methanoazepino[3,4-b]indole-1-carboxamide] gave an IC50 (TNFα release, U937 cells; [6]) greater than 100 µM.

Work on `COc1ccc2[nH]c3c(c2c1)C1CCN(C1)C3C(=O)NCc1ccccc1` (centres unmarked) [compound 45, N-benzyl-7-methoxy-3,4,5,10-tetrahydro-1H-2,5-methanoazepino[3,4-b]indole-1-carboxamide hydrochloride] yielded an IC50 [1, 3] greater than 200 µM.

Molecule `COc1ccc2[nH]c3c(c2c1)C1CCN(C1)C3C(=O)N(C)C` (centres unmarked) [compound 46, 7-methoxy-N,N-dimethyl-3,4,5,10-tetrahydro-1H-2,5-methanoazepino[3,4-b]indole-1-carboxamide] has an IC50 [1, 3] greater than 200 µM and an IC50 (TNFα release, U937 cells; [6]) greater than 100 µM.

For `O=C(OCc1ccccc1)C1c2[nH]c3ccc(OCc4ccccc4)cc3c2C2CCN1C2` (centres unmarked) [compound 47, benzyl 7-(benzyloxy)-3,4,5,10-tetrahydro-1H-2,5-methanoazepino[3,4-b]indole-1-carboxylate trifluoroacetate], the IC50 [1, 5] was greater than 200 µM and the IC50 (TNFα release, U937 cells; [6]) was 76.7 µM.

Work on `COc1ccc2[nH]c3c(c2c1)C1CCN(C1)C3C(N)=O` (centres unmarked) [compound 48, 7-methoxy-3,4,5,10-tetrahydro-1H-2,5-methanoazepino[3,4-b]indole-1-carboxamide] yielded an IC50 [1, 3] greater than 200 µM and an IC50 (TNFα release, U937 cells; [6]) greater than 100 µM.

`COCCNC(=O)C1c2[nH]c3ccc(OC)cc3c2C2CCN1C2` (centres unmarked) [compound 49, 7-methoxy-N-(2-methoxyethyl)-3,4,5,10-tetrahydro-1H-2,5-methanoazepino[3,4-b]indole-1-carboxamide] gave an IC50 (TNFα release, U937 cells; [6]) greater than 100 µM.

In the case of `COc1ccc2[nH]c3c(c2c1)C1CCN(C1)C3c1ccc[nH]1` (centres unmarked) [compound 50, 7-methoxy-1-(1H-pyrrol-2-yl)-3,4,5,10-tetrahydro-1H-2,5-methanoazepino[3,4-b]indole trifluoroacetate], the IC50 [1, 5] is reported as greater than 200 µM.

`COc1ccc2[nH]c3c(c2c1)C1CCN(C1)C3C(=O)OC1CCCCC1` (centres unmarked) [hydrochloride] showed an IC50 (TNFα release, U937 cells; read-out: TNF Release Assay Avg. IC50, LPS 100 ng/ml, 4 hrs, differentiated U937 cells, listed as 38, hydrochloride) of 59.1 µM.

For `COc1ccc2[nH]c3c(c2c1)C1CCN(C1)C3C(=O)OCC(C)(C)C` (centres unmarked) [hydrochloride], the IC50 [1, 3] was 20.6 µM.

With `CCCCCCOC(=O)C1c2[nH]c3ccc(OC)cc3c2C2CCN1C2` (centres unmarked) [trifluoroacetate] the IC50 [1, 3] was 29.7 µM.

With `COCCOC(=O)C1c2[nH]c3ccc(O)cc3c2C2CCN1C2` (centres unmarked) [trifluoroacetate] the IC50 [1, 3] was 6.88 µM.

`COCCOC(=O)C1c2[nH]c3ccc(OC)cc3c2C2CCN1C2` (centres unmarked) [trifluoroacetate] showed an IC50 [1, 3] of 6.49 µM.

In the case of `COc1ccc2[nH]c3c(c2c1)C1CCN(C1)C3C(=O)N(C)OC` (centres unmarked) [trifluoroacetate], the IC50 [1, 3] is reported as 91 µM and 98.2 µM.

With `COc1ccc2[nH]c3c(c2c1)C1CCN(C1)C3C(=O)OC1CCCCC1` (centres unmarked) [trifluoroacetate] the IC50 [1, 3] was 45.2 µM and the IC50 (TNFα release, U937 cells; read-out: TNF Release Assay Avg. IC50, LPS 100 ng/ml, 4 hrs, differentiated U937 cells, listed as 37, trifluoroacetate) was 50.4 µM.
